The text below walks through data of patent publication US9409884B2 (Rigel Pharmaceuticals, Inc., priority 2012, dated 2016).

For one assay, the target named is AMPK. The assay can be described thus: AMPK activation, enzyme-linked immunosorbent assay. Type of assay: biochemical. The settings on record: Table 8, compounds of Table 1. How it is done: Compounds of Table 1 were assayed for their ability to activate AMPK using an enzyme-linked immunosorbent assay.
Compounds of Table 2 were assayed for their ability to activate AMPK using an enzyme-linked immunosorbent assay.
Compounds of Table 3 were assayed for their ability to activate AMPK using an enzyme-linked immunosorbent assay.
Compounds of Table 4 were assayed for their ability to activate AMPK using an enzyme-linked immunosorbent assay.
Compounds of Table 5 were assayed for their ability to activate AMPK using an enzyme-linked immunosorbent assay.
Compounds of Table 6 were assayed for their ability to activate AMPK using an enzyme-linked immunosorbent assay.
Compounds of Table 7 were assayed for their ability to activate AMPK using an enzyme-linked immunosorbent assay.
Consider `N#Cc1ccc(N2CCC(Oc3ccc(C(=O)NC4CCN(Cc5ccncc5)CC4)nc3)CC2)cc1` [Compound 1-1, 5-(1-(4-cyanophenyl)piperidin-4-yloxy)-N-(1-(pyridin-4-ylmethyl)piperidin-4-yl)picolinamide], for which the 50% effective concentration (EC50) was in the range of 100 to 500 nM.

`N#Cc1ccc(CN2CCC(NC(=O)c3ccc(OC4CCN(c5ccc(C#N)cc5)CC4)cn3)CC2)cc1` [Compound 1-2, N-(1-(4-cyanobenzyl)piperidin-4-yl)-5-(1-(4-cyanophenyl)piperidin-4-yloxy) picolinamide] registered a 50% effective concentration (EC50) of less than 100 nM.

With `O=C(NC1CCN(Cc2ccncc2)CC1)c1ccc(OC2CCN(c3ccc(C(F)(F)F)cc3)CC2)cn1` [Compound 1-3, N-(1-(pyridin-4-ylmethyl)piperidin-4-yl)-5-(1-(4-(trifluoromethyl)phenyl)piperidin-4-yloxy)picolinamide], the EC50 is less than 100 nM.

Molecule `N#Cc1ccc(CN2CCC(NC(=O)c3ccc(OC4CCN(c5ccc(C(F)(F)F)cc5)CC4)cn3)CC2)cc1` [Compound 1-4, N-(1-(4-cyanobenzyl)piperidin-4-yl)-5-(1-(4-(trifluoromethyl)phenyl)piperidin-4-yloxy) picolinamide] returned an EC50 of less than 100 nM.

Molecule `O=C(NC1CCN(Cc2cccnc2)CC1)c1ccc(OC2CCN(c3ccc(C(F)(F)F)cc3)CC2)cn1` [Compound 1-5, N-(1-(pyridin-3-ylmethyl)piperidin-4-yl)-5-(1-(4-(trifluoromethyl)phenyl)piperidin-4-yloxy) picolinamide] returned an EC50 of less than 100 nM.

The molecule `N#Cc1ccc(N2CCC(Oc3ccc(C(=O)NC4CCN(Cc5cccnc5)CC4)nc3)CC2)cc1` [Compound 1-6, N-(1-(pyridin-3-ylmethyl)piperidin-4-yl)-5-(1-(4-cyanophenyl)piperidin-4-yloxy)picolinamide] came in with an EC50 of 100 to 500 nM.

`COC(=O)c1ccc(CN2CCC(NC(=O)c3ccc(OC4CCN(c5ccc(C#N)cc5)CC4)cn3)CC2)cc1` [Compound 1-7, methyl 4-((4-(5-(1-(4-cyanophenyl)piperidin-4-yloxy)picolinamido)piperidin-1-yl)methyl)benzoate] gave an EC50 of less than 100 nM.

With `COC(=O)c1ccc(CN2CCC(NC(=O)c3ccc(OC4CCN(c5ccc(C(F)(F)F)cc5)CC4)cn3)CC2)cc1` [Compound 1-8, methyl 4-((4-(5-(1-(4-(trifluoromethyl)phenyl)piperidin-4-yloxy)picolinamido)piperidin-1-yl)methyl)benzoate], the half-maximal effective concentration (EC50) was less than 100 nM.

In the case of `CC(C)(C)OC(=O)N1CCC(NC(=O)c2ccc(OC3CCN(c4ccc(C(F)(F)F)cc4)CC3)nc2)CC1` [Compound 1-9, tert-butyl 4-(6-(1-(4-(trifluoromethyl)phenyl)piperidin-4-yloxy)nicotinamido) piperidine-1-carboxylate], the 50% effective concentration (EC50) was 100 to 500 nM.

Regarding `O=C(NC1CCN(Cc2ccncc2)CC1)c1ccc(OC2CCN(c3ccc(C(F)(F)F)cc3)CC2)nc1` [Compound 1-10, N-(1-(pyridin-4-ylmethyl)piperidin-4-yl)-6-(1-(4-(trifluoromethyl)phenyl)piperidin-4-yloxy)nicotinamide], the half-maximal effective concentration (EC50) was less than 100 nM.

Turning to `O=C(NC1CCN(Cc2ccc(F)cc2)CC1)c1ccc(OC2CCN(c3ccc(C(F)(F)F)cc3)CC2)nc1` [Compound 1-11, N-(1-(4-fluorobenzyl)piperidin-4-yl)-6-(1-(4-(trifluoromethyl)phenyl)piperidin-4-yloxy)nicotinamide], the EC50 is less than 100 nM.

`CC(C)(C)OC(=O)N1CCC(NC(=O)c2cc(OC3CCN(c4ccc(C(F)(F)F)cc4)CC3)ccn2)CC1` [Compound 1-12, tert-butyl 4-(4-(1-(4-(trifluoromethyl)phenyl)piperidin-4-yloxy)picolinamido) piperidine-1-carboxylate] registered a concentration giving a half-maximal response (EC50) of 500 to 1000 nM.

In turn, `O=C(NC1CCN(Cc2ccncc2)CC1)c1cc(OC2CCN(c3ccc(C(F)(F)F)cc3)CC2)ccn1` [Compound 1-13, N-(1-(pyridin-4-ylmethyl)piperidin-4-yl)-4-(1-(4-(trifluoromethyl)phenyl)piperidin-4-yloxy)picolinamide] displayed an EC50 of 100 to 500 nM.

Regarding `O=C(NC1CCN(Cc2ccncc2)CC1)c1cncc(OC2CCN(c3ccc(C(F)(F)F)cc3)CC2)c1` [Compound 1-14, N-(1-(pyridin-4-ylmethyl)piperidin-4-yl)-5-(1-(4-(trifluoromethyl)phenyl)piperidin-4-yloxy)nicotinamide], the EC50 is less than 100 nM.

`CC(C)(C)OC(=O)N1CCC(NC(=O)c2ccnc(OC3CCN(c4ccc(C(F)(F)F)cc4)CC3)c2)CC1` [Compound 1-15, tert-butyl 4-(2-(1-(4-(trifluoromethyl)phenyl)piperidin-4-yloxy)isonicotinamido) piperidine-1-carboxylate]: the concentration giving a half-maximal response (EC50) is 1000 to 5000 nM.

For `O=C(NC1CCN(Cc2ccc(F)cc2)CC1)c1cncc(OC2CCN(c3ccc(C(F)(F)F)cc3)CC2)c1` [Compound 1-16, N-(1-(4-fluorobenzyl)piperidin-4-yl)-5-(1-(4-(trifluoromethyl)phenyl)piperidin-4-yloxy)nicotinamide], the EC50 is less than 100 nM.

In the case of `N#Cc1ccc(CN2CCC(NC(=O)c3cncc(OC4CCN(c5ccc(C(F)(F)F)cc5)CC4)c3)CC2)cc1` [Compound 1-17, N-(1-(4-cyanobenzyl)piperidin-4-yl)-5-(1-(4-(trifluoromethyl)phenyl)piperidin-4-yloxy)nicotinamide], the half-maximal effective concentration (EC50) is less than 100 nM.

In turn, `O=C(NC1CCN(Cc2cccnc2)CC1)c1cncc(OC2CCN(c3ccc(C(F)(F)F)cc3)CC2)c1` [Compound 1-18, N-(1-(pyridin-3-ylmethyl)piperidin-4-yl)-5-(1-(4-(trifluoromethyl)phenyl)piperidin-4-yloxy)nicotinamide] displayed a concentration giving a half-maximal response (EC50) of less than 100 nM.

`O=C(NC1CCNCC1)c1ccnc(OC2CCN(c3ccc(C(F)(F)F)cc3)CC2)c1` [Compound 1-19, N-(piperidin-4-yl)-2-(1-(4-(trifluoromethyl)phenyl)piperidin-4-yloxy) isonicotinamide] displayed a concentration giving a half-maximal response (EC50) of 1000 to 5000 nM.

In the case of `O=C(NC1CCN(Cc2ccncc2)CC1)c1ccnc(OC2CCN(c3ccc(C(F)(F)F)cc3)CC2)c1` [Compound 1-20, N-(1-(pyridin-4-ylmethyl)piperidin-4-yl)-2-(1-(4-(trifluoromethyl)phenyl)piperidin-4-yloxy) isonicotinamide], the EC50 fell in the range of 500 to 1000 nM.

`N#Cc1ccc(CN2CCC(NC(=O)c3ccnc(OC4CCN(c5ccc(C(F)(F)F)cc5)CC4)c3)CC2)cc1` [Compound 1-21, N-(1-(4-cyanobenzyl)piperidin-4-yl)-2-(1-(4-(trifluoromethyl)phenyl)piperidin-4-yloxy) isonicotinamide] yielded an EC50 of 100 to 500 nM.

Turning to `O=C(NC1CCN(Cc2ccc(F)cc2)CC1)c1ccnc(OC2CCN(c3ccc(C(F)(F)F)cc3)CC2)c1` [Compound 1-22, N-(1-(4-fluorobenzyl)piperidin-4-yl)-2-(1-(4-(trifluoromethyl)phenyl)piperidin-4-yloxy) isonicotinamide], the half-maximal effective concentration (EC50) was in the range of 1000 to 5000 nM.

For `CC(C)(C)OC(=O)N1CC[C@@H](NC(=O)c2ccc(OC3CCN(c4ccc(C(F)(F)F)cc4)CC3)cn2)C1` [Compound 1-23, (R)-tert-butyl 3-(5-(1-(4-(trifluoromethyl)phenyl)piperidin-4-yloxy)picolinamido) pyrrolidine-1-carboxylate], the EC50 was in the range of 100 to 500 nM.

Molecule `O=C(N[C@@H]1CCNC1)c1ccc(OC2CCN(c3ccc(C(F)(F)F)cc3)CC2)cn1` [Compound 1-24, (R)-N-(pyrrolidin-3-yl)-5-(1-(4-(trifluoromethyl)phenyl)piperidin-4-yloxy) picolinamide] gave a concentration for a half-maximal effect (EC50) of 5000 to 10000 nM.

Turning to `O=C(N[C@@H]1CCN(Cc2ccncc2)C1)c1ccc(OC2CCN(c3ccc(C(F)(F)F)cc3)CC2)cn1` [Compound 1-25, (R)-N-(1-(pyridin-4-ylmethyl)pyrrolidin-3-yl)-5-(1-(4-(trifluoromethyl)phenyl)piperidin-4-yloxy)picolinamide], the EC50 was 100 to 500 nM.

Molecule `CC(C)(C)OC(=O)N1CC[C@H](NC(=O)c2ccc(OC3CCN(c4ccc(C(F)(F)F)cc4)CC3)cn2)C1` [Compound 1-26, (S)-tert-butyl 3-(5-(1-(4-(trifluoromethyl)phenyl)piperidin-4-yloxy)picolinamido) pyrrolidine-1-carboxylate] came in with an EC50 of 100 to 500 nM.

`O=C(N[C@H]1CCNC1)c1ccc(OC2CCN(c3ccc(C(F)(F)F)cc3)CC2)cn1` [Compound 1-27, (S)-N-(pyrrolidin-3-yl)-5-(1-(4-(trifluoromethyl)phenyl)piperidin-4-yloxy)picolinamide] displayed an EC50 greater than 10000 nM.

Still in this assay, the particulars now being: Table 14, compounds of Table 7.
In turn, `N#Cc1ccc(CN2CC[C@@H](NC(=O)c3ccc(C(=O)N4CCC(Oc5ccc(S(=O)(=O)C(F)(F)F)cc5)CC4)nc3)[C@H](F)C2)cc1` (relative stereo) [Compound 7-119, N-((trans)-1-(4-cyanobenzyl)-3-fluoropiperidin-4-yl)-6-(4-(4-(trifluoromethylsulfonyl)phenoxy)piperidine-1-carbonyl)nicotinamide] gave an EC50 of less than 1000 nM.

The molecule `COc1ccc(C(=O)C2CCN(C(=O)c3ccc(C(=O)N[C@H]4CCN(Cc5ccc(OC(F)(F)F)cc5)C[C@H]4F)cn3)CC2)cc1` (relative stereo) [Compound 7-123, N-((cis)-3-fluoro-1-(4-(trifluoromethoxy)benzyl)piperidin-4-yl)-6-(4-(4-methoxybenzoyl)piperidine-1-carbonyl)nicotinamide] registered an EC50 of less than 1000 nM.

`COc1ccc(C(=O)C2CCN(C(=O)c3ccc(C(=O)N[C@@H]4CCN(Cc5ccc(C#N)cc5)C[C@H]4F)cn3)CC2)cc1` (single isomer, unassigned) [Compound 7-106]: the EC50 is less than 1000 nM.

Turning to `COc1ccc(C(=O)C2CCN(C(=O)c3ccc(C(=O)N[C@H]4CCN(Cc5ccc(C#N)cc5)C[C@@H]4F)cn3)CC2)cc1` (single isomer, unassigned) [Compound 7-107], the EC50 is less than 1000 nM.
